Test results from patent publication US12686664B2, “SOCE inhibitors and therapeutic uses thereof” (Institut National de la Santé et de la Recherche Médicale …, priority 2020, dated 2026).
Where two headings read alike, the source gives them in different places. Marks after values point to notes of the source that are not given here.

Test system: store-operated Ca^2+ entry in PLP-B lymphocytes
Experiment: Store-operated Ca2+ entry after thapsigargin depletion of ER Ca2+ stores in PLP-B lymphocytes
Assay type: cell-based
Protocol: The effects of the molecules developed were tested on PLP-B lymphocytes. Store-operated Ca^2+ entry was induced by depletion of Endoplasmic Reticulum Ca^2+ stores (ER Ca^2+ stores) with thapsigargin (Tg) in a Ca^2+-free medium and measured following the addition of 1.8 mM of CaCl2) in the extracellular medium. The results are compared to the results obtained for known SOCE inhibitors SKF-96365, GSK-7975A, Synta 66.

[1] = Lymphocyte, 10 μM, PLP-B lymphocytes, % of inhibition (−) or activation, DMSO control 100%, read-out: Effect on amplitude of SOCE Peak
[2] = Lymphocyte, 10 μM, thapsigargin (Tg) peak, PLP-B lymphocytes, % of inhibition (−) or activation, read-out: Effect on amplitude of Tg Peak
[3] = Lymphocyte, 50 μM, PLP-B lymphocytes, % of inhibition (−) or activation, DMSO control 100%, read-out: Effect on amplitude of SOCE Peak
[4] = Lymphocyte, 50 μM, thapsigargin (Tg) peak, PLP-B lymphocytes, % of inhibition (−) or activation, read-out: Effect on amplitude of Tg Peak
[5] = Lymphocyte, 100 μM, PLP-B lymphocytes, % of inhibition (−) or activation, DMSO control 100%, read-out: Effect on amplitude of SOCE Peak
[6] = Lymphocyte, 100 μM, thapsigargin (Tg) peak, PLP-B lymphocytes, % of inhibition (−) or activation, read-out: Effect on amplitude of Tg Peak
[7] = Lymphocyte, PLP-B lymphocytes, % of inhibition (−) or activation, DMSO control 100%, read-out: Effect on amplitude of SOCE Peak
[8] = Lymphocyte, thapsigargin (Tg) peak, PLP-B lymphocytes, % of inhibition (−) or activation, read-out: Effect on amplitude of Tg Peak

Compound | inhibition at 10 µM [1] [%] | inhibition at 10 µM [2] [%] | inhibition at 50 µM [3] [%] | inhibition at 50 µM [4] [%] | inhibition at 100 µM [5] [%] | inhibition at 100 µM [6] [%] | other results
1-(4-(Methoxymethoxy)-2-(trifluoromethyl)-1H-benzo[d]imidazole [6αaf VAL3.33] |  |  |  |  |  |  | Effect on amplitude of SOCE peak (10 μM, PLP-B lymphocytes, % of inhibition (−) or activation, DMSO control 100%): 40.0# %; Effect on amplitude of Tg Peak (10 μM, thapsigargin (Tg) peak, PLP-B lymphocytes, % of inhibition (−) or activation): −29.0# %; Effect on amplitude of SOCE peak (50 μM, PLP-B lymphocytes, % of inhibition (−) or activation, DMSO control 100%): 1.0%; Effect on amplitude of Tg Peak (50 μM, thapsigargin (Tg) peak, PLP-B lymphocytes, % of inhibition (−) or activation): −34.0# %; Effect on amplitude of SOCE peak (100 μM, PLP-B lymphocytes, % of inhibition (−) or activation, DMSO control 100%): −2.0%; Effect on amplitude of Tg Peak (100 μM, thapsigargin (Tg) peak, PLP-B lymphocytes, % of inhibition (−) or activation): −38.0# %
COc1ccc(CCCOc2ccc(CCn3ncc4ccccc43)cc2)cc1 [6αaa DAD 4-574] | 10.4 | 23.1 | 16.4 | 13.3 | 31.6 | 19.7 | 
c1ccc(CCOc2ccc(CCn3cnc4ccccc43)cc2)cc1 [6αab DAD 4-553] |  |  | 2 | 1 | 46 | 8 | 
c1ccc(CCCOc2ccc(CCn3ncc4ccccc43)cc2)cc1 [6αab DAD 4-575] | -20.8 | 8.9 | 2.9 | 20.7 | 43.6 | 24.2 | 
COc1ccccc1CCOc1ccc(CCn2cnc3ccccc32)cc1 [6αac DAD 4-566] | 31.1 | -9.6 | 87.2 | -9 | 84.3 | -13.2 | inhibition at 0.1 µM [7]: -12.9%; inhibition at 0.1 µM [8]: -2.3%; inhibition at 1 µM [7]: -6.2%; inhibition at 1 µM [8]: 1.1%; IC50 (Lymphocyte, SOCE in PLP-B lymphocytes, average of three assays, ±0.5 μM): 13.5 µM
COc1cccc(CCOc2ccc(CCn3cnc4ccccc43)cc2)c1 [6αad DAD 4-567] | 28.1 | 5.7 | 81.7 | 9.1 | 84.3 |  | inhibition at 0.1 µM [7]: -12.9%; inhibition at 1 µM [7]: -2.9%; inhibition at 1 µM [8]: 16.2%
COCOc1ccc(CCn2cnc3ccccc32)cc1 [6αad VAL3.31, 1-(4-(Methoxymethoxy)phenethyl)-1H-benzo[d]imidazole] | -51 | 10 | -54 | 9 | -5 | 15 | 
c1ccc(OCCOc2ccc(CCn3cnc4ccccc43)cc2)cc1 [6αae DAD 4-569] | -7.5 | 11.3 | -13.1 | 7.6 | 12.4 | 12 | 
COCOc1ccc(CCn2ncc3ccccc32)cc1 [6αae VAL3.32, 1-(4-(Methoxymethoxy)phenethyl)-1H-indazole] | -39 | 26 | -23 | 19 | 24 | 27 | 
COc1ccc(CCOc2ccc(CCn3ncc4ccccc43)cc2)cc1 [6αb DAD 4-573, 1-(4-(4-Methoxyphenethoxy)phenethyl)-1H-indazole] | -14 | 8 |  | 5 | 30 | 22 | percent change in peak amplitude vs DMSO control (negative = inhibition, positive = activation) at 50 µM [3]: 0%
COc1ccc(CCOc2ccc(CCn3c(C(F)(F)F)nc4ccccc43)cc2)cc1 [6αc DAD 4-546, 1-(4-(4-Methoxyphenethoxy)phenethyl)-2-trifluoromethyl-1H-benzo[d]imidazole] |  |  | 30 | 18 | 26 | 18 | 
Fc1ccc(CCOc2ccc(CCn3cnc4ccccc43)cc2)cc1 [6αd DAD 4-568] | 7.8 | 8.5 | -1.3 | 5.3 | 64 | 15.1 | 
COc1ccc(CCOc2ccc(CCn3cnc4c(Cl)cc(C(F)(F)F)cc43)cc2)cc1 [6αe DAD 4-548, 4-Chloro-1-(4-(4-methoxyphenethoxy)phenethyl)-6-(trifluoromethyl)-1H-benzo[d]imidazole] |  |  | 28 | -5 | 9 | -1 | 
c1ccc(CCCOc2ccc(CCn3cnc4ccccc43)cc2)cc1 [6αm DAD 3-475] |  |  | 4 | -7 | 77 | -7 | 
COc1ccc(CCOc2ccc(CCn3c(C(F)(F)F)nc4cc(N)ccc43)cc2)cc1 [6αm VAL 1-77] | -4 | 1 | 12 | 1 | 55 | 11 | 
COc1ccc(CCCOc2ccc(CCn3cnc4ccccc43)cc2)cc1 [6αn DAD 3-474] | -16 | 5 | -4 | -5 | 25 | 3 | inhibition at 1 µM [7]: -1%; inhibition at 1 µM [8]: 11%
COc1ccc(CCOc2ccccc2CCn2cnc3ccccc32)cc1 [6αo DAD 4-551] |  |  | 33 | 4 | 82 | -8 | 
COc1ccc(CCOc2cccc(CCn3cnc4ccccc43)c2)cc1 [6αp DAD 4-552] |  |  | 29 | 15 | 71 | 7 | 
c1ccc(OCCCOc2ccc(CCn3cnc4ccccc43)cc2)cc1 [6αs DAD 4-570] | 9.4 | 10.6 | 19 | -0.7 | 56.9 | 4.1 | 
COc1ccc(COc2ccc(CCn3c(C(F)(F)F)nc4cc(N)ccc43)cc2)cc1 [6αt VAL 1-76] | 3 | -1 | 10 | -6 | 34 | 22 | 
COc1ccc(CCCOc2ccc(CCn3c(C(F)(F)F)nc4cc(N)ccc43)cc2)cc1 [6αu VAL 1-75] | -6 | -5 | 30 | -11 | 68 | -5 | 
Nc1ccc2c(c1)nc(C(F)(F)F)n2CCc1ccc(OCCCc2ccccc2)cc1 [6αv VAL 1-64] | -8 |  | 25 | -11 | 77 | -2 | percent change in peak amplitude vs DMSO control (negative = inhibition, positive = activation) at 10 µM [2]: 0%
COc1ccc(COc2ccc(CCn3cnc4ccccc43)cc2)cc1 [6αz DAD 4-472] | 15.4 | 1.6 | 13.7 | 1.9 | -5.9 | 1.5 | 
FC(F)(F)c1cc(C(F)(F)F)n(CCc2ccccc2OCCc2ccccc2)n1 [6βaa DAD 3.535] | 18 | 8 | 20 | 4 | 29 | 11 | 
COc1ccc(CCCOc2ccc(CCn3cncn3)cc2)cc1 [6βe DAD 3.470] |  |  |  |  |  | 31 | Effect on amplitude of SOCE peak (50 μM, PLP-B lymphocytes, % of inhibition (−) or activation, DMSO control 100%, listed as 6βe): −6.0%; Effect on amplitude of Tg Peak (50 μM, thapsigargin (Tg) peak, PLP-B lymphocytes, % of inhibition (−) or activation, listed as 6βe): −31.0# %; Effect on amplitude of SOCE peak (100 μM, PLP-B lymphocytes, % of inhibition (−) or activation, DMSO control 100%, listed as 6βe): −21.0# %
COc1ccc(COc2ccc(CCn3cnc(C(F)(F)F)n3)cc2)cc1 [6βg DAD 3.472] |  |  | 5 | 18 | 37 | 25 | 
FC(F)(F)c1ncn(CCc2ccc(OCCCc3ccccc3)cc2)n1 [6βi DAD 3.475] |  |  | 13 | 6 | 43 | 7 | 
COc1ccc(COc2ccc(CCn3cccn3)cc2)cc1 [6βm DAD 2.306] | -2 |  | -0.5 |  | -16.8 |  | 
COc1ccc(CCOc2ccc(CCn3cccn3)cc2)cc1 [6βn DAD 2.307] | -6.5 |  | 7.2 |  | 62 |  | 
